# From patent publication US20040137500A1, “Novel polypeptide” (Pfizer Inc, priority 2000, published 2004)
# Tested on: PFI-020
# Test: FLIPR cell-based assay for agonist activation of PFI-020
# Set-up: species or system human
# Settings: 10 μM; PFI-020-transfected 293 cells (HEK 293 expressing mouse Gα15); Fluo3 FLIPR
# Method: Fluorescence Imaging Plate Reader (FLIPR®) technology was employed as a means to detect activation of PFI-020 by agonists in a cell-based assay.
# 5×10^6 Human Embryonic Kidney (HEK) 293 cells expressing the mouse Gα15 gene (from here on called '293 cells′), were transiently transfected with 7.5 μg of PFI-020 (contained within the pcDNA4HIS-max-TOPO (Invitrogen) plasmid) vector, or vector alone, using Lipofectamine Plus® reagent (Gibco BRL) as per the manufacturer's protocol. The plasmid pcDNA4HIS-max-TOPO was used as it contains elements that up-regulate the level of gene transcription over standard pcDNA3.1 vectors. 24 hrs post-transfection, the cells were detached from the flask using Trypsin/EDTA solution (LTI) and seeded into a black sided, poly-D-lysine-treated, 96-well plate (Becton Dickinson) at 5×10^4 cells/well density. […] The FLIPR® processing involved reading the fluorescence for all samples for 2 minutes; during this time the fluorescence baseline was determined for the first 10 seconds. The desired amount of compound was then automatically transferred to the wells and the fluorescence was continuously monitored for the remainder of the time. […]
# FIGS. 3, 4, 5 and 6 depict the action of various purinoceptor compounds at a concentration of 10 μM on PFI-020-transfected 293 cells, showing fluorescence intensity versus time (in seconds). […]
row,Structure (SMILES),activation of PFI-020 (fluorescence intensity versus time)
1,"Nc1nc(Cl)nc2c1ncn2[C@@H]1O[C@H](COP(=O)([O-])OP(=O)([O-])OP(=O)([O-])[O-])[C@@H](O)[C@H]1O.[Na+].[Na+].[Na+].[Na+] [2-chloro-ATP, 2-chloroadenosine triphosphate tetrasodium]",activated
2,"O=c1ccn([C@@H]2O[C@H](COP(=O)(O)OP(=O)(O)OP(=O)(O)O)[C@@H](O)[C@H]2O)c(=O)[nH]1 [UTP, Uridine triphosphate]",activated
